Results published in patent US12459951B2, “Compounds that interact with RAS superfamily proteins for treatment of cancers, inflammatory diseases, rasopathies, and fibrotic disease” (SHY Therapeutics, LLC, priority 2022, dated 2025).

Tests used:
[1] = target: T1, Rheb (Homo sapiens, UniProt Q15382); experiment: Rheb GTP Binding Domain Inhibition Assay; conditions: read-out: Rheb: % inh.
T1 construct: made in house
Description: Protocol for Cdc42 and Rheb GTP Binding Domain Inhibition Assay
The following method was developed as specific assay for cdc42 and Rheb proteins.
• 25 mM Tris-HCl, pH 7.4 • 27 mM KCl • 137 mM NaCl • 1 mM MgCl2 • 1 mM DTT Buffer-II: • 50 mM Tris-HCl, pH 7.0 • 1 mM MgCl2 • 1 mM DTT
The small GTPases proteins cdc42 and Rheb were expressed as His-tagged proteins. For the assay, the cdc42 and Rheb purified small GTPases proteins were diluted in Buffer-I or Buffer-II to a final concentration of 10-30 μg/mL. 200 μL of each diluted protein was added to a nickel-coated 96-well plate and incubated overnight at […]. Then the protein solution was discarded and 200 μL of Buffer-I or Buffer-II was added to each well in the presence of 1% DMSO. Compounds to be tested were added to the protein-coated wells at final concentration of 20 μM, and incubated for 3 hours at room temperature with and without 10-30 μg/mL of Sos added to the final hour of the incubation. When performing IC50 measurements a serial dilution of all tested concentrations was added. Then Cy3-GTP or Cy5-GTP was added to each well to a final concentration of 100 nM. The labeled GTP was incubated for 45 minutes at room temperature. Following GTP incubation, wells were washed 3× in Buffer-I or Buffer-II and 200 μL of Buffer-I or Buffer-II was added to each well. Following washes, the amount of bound labeled-GTP was measured using a SpectraMax M3 (Molecular Devices).

[2] = tested on: active/cleaved caspase 3; experiment: Cell-based caspase activation assay (western blot); design: species or system human
Description: (§1) Biological Example 4: Puma Expression and Caspases Activation Assay
(§2) Protocols for Cell-Based Puma Expression and Caspase Activation Assays
(§3) Cell lines: All human tumor-derived cancer cell lines were purchased from American Type Culture Collection. Human tumor-derived cancer cell lines Panc-1 (expressing KRas G12D mutant), MiaPaca-2 (expressing KRas G12C mutant), A549 (expressing KRas G12S mutant), and A375 (expressing wild type KRas) were grown in complete DMEM-High Glucose medium and NCI-H1975 (expressing wild type KRas), MM.1R (expressing wild type KRas) and IM.9 (expressing wild type KRas) were grown in RPMI1640 medium. Human tumor-derived cancer cell line BT-549 (expressing wild type KRas) was grown in RPMI1640 medium with 11.8U insulin. All mediums were supplemented with penicillin (100 U/mL), streptomycin (100 μg/mL), and 10% heat-inactivated FBS at 37° C. in a humidified incubator with 5% CO2.
(§4) Method: Cells were plated at 300,000 to 800,000 cells/well density in a 6-well plate in the presence of 10% FBS. The next day small molecules to be tested were added to the cells in the final concentration of 3 μM in the presence of 0.3% DMSO for 48 hours incubation at 37° C. For IC50 value determination, serial dilutions of compounds were added to cells under the same conditions. Following 48 hours of incubation cells were lysed with lysis buffer containing 1% Triton X-100, EDTA, and Halt™ Protease & Phosphatase Inhibitor Cocktail (Thermo Scientific). Protein concentration was assessed by BCA protein assay (Thermo Scientific). Increase expression of PUMA and active/cleaved forms of caspase 3, caspase 6 and caspase 9 were detected by western blot.
(§5) Western blot protocol: Equal amounts of protein (15-50 μg) were separated by SDS-PAGE and transferred to nitrocellulose membranes (Invitrogen by Thermo Fisher Scientific). The membrane was stained with Ponceau S Stain (Boston BioProducts) to verify uniform protein loading. Membranes were blocked with 10% milk and expression levels of PUMA was assessed by incubating overnight at 4° C. with the antibody PUMA (D30C10) from Cell Signaling Technology (#12450) and active/cleaved forms of caspase 3, caspase 6 and caspase 9 by incubating overnight at 4° C. with the following antibodies: cleaved caspase-3 (Asp175) (5A1E), cleaved caspase-6 (Asp162) and cleaved caspase-9 (Asp330) (D2D4) (all antibodies from Cell Signaling Technology). Then the membranes were incubated with HRP-conjugated secondary antibody (Jackson Immunoresearch, West Grove, PA). Bands were incubated in Amersham ECL Prime Western Blotting Detection Reagent (GE Healthcare) and visualized using the ChemiDoc MP imaging system (Bio-Rad).

[3] = tested on: active/cleaved caspase 6; experiment: Cell-based caspase activation assay (western blot); design: species or system human
Description: as §1, §2, §3, §4, §5

[4] = tested on: active/cleaved caspase 9; experiment: Cell-based caspase activation assay (western blot); design: species or system human
Description: as §1, §2, §3, §4, §5

T1 sequence (Q15382 whole entry, the tested form may be a part): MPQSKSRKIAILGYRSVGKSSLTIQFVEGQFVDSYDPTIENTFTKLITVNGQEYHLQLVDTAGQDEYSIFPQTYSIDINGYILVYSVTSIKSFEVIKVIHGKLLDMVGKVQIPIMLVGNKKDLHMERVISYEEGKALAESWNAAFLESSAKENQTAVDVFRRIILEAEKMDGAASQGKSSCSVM

Row | Structure (SMILES) | inhibition at 20 µM [1] | Caspase 3 activation ([2]; A375, after 48 hours) | Caspase 3 activation ([2]; A549, after 48 hours) | Caspase 3 activation ([2]; MiaPaca2, after 48 hours) | Caspase 6 activation ([3]; A375, after 48 hours) | Caspase 6 activation ([3]; A549, after 48 hours) | Caspase 6 activation ([3]; MiaPaca2, after 48 hours) | Caspase 9 activation ([4]; A375, after 48 hours) | Caspase 9 activation ([4]; A549, after 48 hours) | Caspase 9 activation ([4]; MiaPaca2, after 48 hours) | Caspase 3 activation ([2]; BT-549, after 48 hours) | Caspase 6 activation ([3]; BT-549, after 48 hours) | Caspase 9 activation ([4]; BT-549, after 48 hours) | further results
1 | COc1cc(Nc2nc(-c3nccn3C)nn3cc(-c4ccccn4)c(C)c23)ncn1 [Compound 94, N-(6-Methoxypyrimidin-4-yl)-5-methyl-2-(1-methyl-1H-imidazol-2-yl)-6-(pyridin-2-yl)pyrrolo[2,1-f][1,2,4]triazin-4-amine] | 26 to 49% | – | – | – | – | – | – | – | – | – | – | – | – | –
2 | COc1ccnc(Nc2nc(-c3nccn3C)nn3cc(-c4ccn(C(F)F)n4)c(C)c23)n1 [Compound 95, 6-(1-(Difluoromethyl)-1H-pyrazol-3-yl)-N-(4-methoxypyrimidin-2-yl)-5-methyl-2-(1-methyl-1H-imidazol-2-yl)pyrrolo[2,1-f][1,2,4]triazin-4-amine] | 50 to 75% | – | – | – | – | – | – | – | – | – | – | – | – | –
3 | COc1ccnc(Nc2nc(-c3nccn3C)nn3cc(-c4ccn(C)n4)c(C)c23)c1 [Compound 102, N-(4-Methoxypyridin-2-yl)-5-methyl-2-(1-methyl-1H-imidazol-2-yl)-6-(1-methyl-1H-pyrazol-3-yl)pyrrolo[2,1-f][1,2,4]triazin-4-amine] | – | yes | yes | yes | yes | yes | yes | yes | yes | yes | – | – | – | Caspase 3 activation ([2]; IM.9, after 48 hours): yes; Caspase 3 activation ([2]; MM.1R, after 48 hours): yes; Caspase 3 activation ([2]; NCI-H1975, after 48 hours): yes; Caspase 6 activation ([3]; IM.9, after 48 hours): yes; Caspase 6 activation ([3]; MM.1R, after 48 hours): yes; Caspase 6 activation ([3]; NCI-H1975, after 48 hours): yes; Caspase 9 activation ([4]; IM.9, after 48 hours): yes; Caspase 9 activation ([4]; MM.1R, after 48 hours): yes; Caspase 9 activation ([4]; NCI-H1975, after 48 hours): yes
4 | Cc1c(-c2ccn(C)n2)cn2nc(-c3nccn3C)nc(Nc3cc4n(n3)CCO4)c12 [Compound 124, N-(5-Methyl-2-(1-methyl-1H-imidazol-2-yl)-6-(1-methyl-1H-pyrazol-3-yl)pyrrolo[2,1-f][1,2,4]triazin-4-yl)-2,3-dihydropyrazolo[5,1-b]oxazol-6-amine] | – | yes | – | yes | yes | – | yes | yes | – | yes | yes | yes | yes | Caspase 3 activation ([2]; HCC1806, after 48 hours): yes; Caspase 3 activation ([2]; NCI-H358, after 48 hours): yes; Caspase 6 activation ([3]; HCC1806, after 48 hours): yes; Caspase 6 activation ([3]; NCI-H358, after 48 hours): yes
5 | Cc1c(-c2ccn(C(C)C)n2)cn2nc(-c3nccn3C)nc(Nc3nccn3C)c12 [Compound 93, 6-(1-Isopropyl-1H-pyrazol-3-yl)-5-methyl-N,2-bis(1-methyl-1H-imidazol-2-yl)pyrrolo[2,1-f][1,2,4]triazin-4-amine] | 76 to 100% | – | – | – | – | – | – | – | – | – | – | – | – | –
6 | COc1cc(Nc2nc(-c3nccn3C)nn3cc(-c4ccn(C(C)C)n4)c(C)c23)ncn1 [Compound 6, 6-(1-Isopropyl-1H-pyrazol-3-yl)-N-(6-methoxypyrimidin-4-yl)-5-methyl-2-(1-methyl-1H-imidazol-2-yl)pyrrolo[2,1-f][1,2,4]triazin-4-amine] | 76 to 100% | yes | yes | yes | yes | yes | yes | yes | yes | yes | yes | yes | yes | Caspase 3 activation ([2]; Panc-1, after 48 hours): yes; Caspase 6 activation ([3]; Panc-1, after 48 hours): yes
